The text below walks through data of WO2009110655A1, “Novel beta substituted morita-baylis-hillman derivatives” (FOOD SCIENCE Co Ltd, priority 2008, dated 2009).

Data set [1] has as its system human esophageal cancer cell line HEC4. As to the kind of experiment: MTT assay, anticancer effect (cytotoxicity) of β-substituted MBH derivatives. Format: cell-based. For orientation: Tetrazolium dyes change colour on reduction, which living cells bring about.
Data set [2] has as its system Human HeLa cell lines. The following applies: "It is reported"; cited from earlier work.
[3] abbreviates: 2 mg compound in 80 μl DMSO, 1 μl per well, 24 h at 37 °C, undiluted (FIGs. 1 and 2).
Where [4] appears, read: diluted 20-fold, 24 h at 37 °C (FIG. 3).

`C=C(C)C(O[Si](CC)(CC)CC)/C(=C\CCCCCCCCCCCCC)C(=O)OC` (stereo not drawn) [SE-I, (E)-methyl-2-(l-triethylsiloxy-2-methylaryl)hexadeca-2-enoate]: the oncolytic activity result in data set [1] (setting [3]) is reported as “almost no oncolytic activity”.

Take `CCCCCCCCCCCCC/C=C(/C(=O)OC)C(O)C(C)=O` (stereo not drawn) [SE-3, secokotomolide A]: the “viabilities of the cancer cells” value in data set [1] (setting [4]) is “about 50%”. In data set [2], the DNA damage entry is on record as “apotositic DNA damage” and the induction of apoptosis entry is reported as “significant induction of apoptosis”.

Consider `CCCCCCCCCCCC/C=C(\C(=O)OC)C(O)c1ccccc1` (stereo not drawn) [SE-Il, (Z)-methyl-2-(hydroxy(phenyl)methyl)pentadeca-2-enoate], for which, in data set [1] (setting [3]), the oncolytic activity entry is listed as “very high oncolytic activities” and the “viabilities of the cancer cells” value is reported as “less than 20%”.

Take `CCCCCCCCCCCCC/C=C(/C(=O)OC)C(O[Si](CC)(CC)CC)C(C)=O` (stereo not drawn) [SE-2, (E)-methyl-2-(l-triethylsiloxy-2-oxopropyl)hexadeca-2-enoate]: the oncolytic activity entry in data set [1] (setting [3]) is on record as “almost no oncolytic activity”.

Take `CCCCCCCCCCCCC/C=C(/C(=O)OC)C(O)c1ccccc1` (stereo not drawn) [SE-5, (E)-methyl-2-(hydroxy(phenyl)methyl)hexateca-2-enoate]: the “viabilities of the cancer cells” value in data set [1] (setting [4]) is recorded as “about 50%”. Also, the “activity (comparison of diluted samples)” value in data set [1] (diluted samples, 20-fold, compared with SE-3 (FIG. 3)) is reported as “a little higher activity than SE-3”.
